Data reported in US4659712A, “Fodder additive and a process for the preparation” (Richter Gedeon Vegyeszeti Gyar Rt., priority 1984, dated 1987).

How the values were obtained:
[1] = Quinoxaline-2-carboxylic acid (Carbadox metabolite) residue in pig muscle (ham, chop), liver and kidney after flumecinol treatment; type: in vivo, pigs
Method: Tests were carried out at a large-scale pig farm, where 25 mg/kg of body weight of Carbadox admixed with the fodder of the pigs were administered to pigs having a live weight of 40 kg. From a population fed with this fodder 27 animals, each weighing exactly 40 kg, were selected, by weighing them separately. The selected animals were railed off in a place suitable for further tests. From this time on (zero time) the animals were given the same fodder as before, except Carbadox.
The 27 animals were divided into three groups as follows:
Group I: 12 animals (ser. Nos. from 1 to 12) slaughtering: three animals each when starting the experiment (0 time) and on the 1st, 5th and 15th days (positive control group) Group II: 9 amimals (ser. Nos. from 13 to 21) treatment: a single 40 mg/kg of body weight dose of flumecinol at zero time. slaughtering: three animals each on the 1st, 5th and 15th days (group treated with a single dose of flumecinol) Group III: 6 animals (ser. Nos. 22 to 27) treatment: 40 mg/kg of body weight of flumecinol for three days, at zero time and on the 1st and 2nd day slaughtering: three animals each on the 5th and 15th days (group treated with flumecinol three times) Flumecinol is available as a micropellet containing 19.02% of active ingredient. From this and a 1% starch hydrolysate a suspension is prepared, containing 40 mg of flumecinol per 1 ml (dose used for one kg of body weight). The active compound was administered 8 o'clock in the morning, without previous fasting, through a stomach tube, in order to ensure exact conditions for the experiments. The animals were killed and samples were taken from 8 to 11 o'clock in the morning, whereupon the samples were transported into the analytical laboratory within one hour, under cooling.
Quinoxaline-2-carboxylic acid (a metabolite of Carbadox) was determined in the chop, liver and kidney tissues of three animals from each group. Each muscle and liver sample was subjected to organoleptic examination also (boiling test).
The quantity of quinoxaline-2-carboxylic acid was determined essentially following the method described in the USDA Chemistry Laboratory Guidebook (5007 Determination of Carbadox):
Following the alkaline hydrolysis of the muscle, liver and kidney samples, the hydrolysates were strongly acidified and the quinoxaline-2-carboxylic acid was extracted with ethyl acetate. The pH of the ethyl acetate extract was adjusted to 6 with a citric acid buffer, whereupon the mixture was extracted with benzene. In the next step the acid was esterified with a mixture of n-propanol and sulfuric acid, to yield propyl quinoxaline-2-carboxylate. The quantity of the latter compound was determined (after purification by thin layer chromatography) by gas chromatography. This cumbersome test procedure was always performed together with a […] control sample to which a known amount (0.2 μg-1.0 μg) of quinoxaline-2-carboxylic acid (standard) was added. The percentage of the active ingredient recovered from this sample was taken into account when calculating the residual active substance amount. In this way the error of the process was eliminated.
The test results, if not otherwise indicated, are given in μg/kg.
The quantity of quinoxaline-2-carboxylic acid in the above-specified slaughtering times is shownn in Table 1. The tests were carried out on three animals and Table 1 contains the results obtained on the individual animals. The results were also statistically evaluated for the various sorts of tissues, although in this specific case this was not really necessary, since according to the valid prescriptions the products of animal origin should not contain Carbadox at all, i.e. the limit is zero. Therefore, we considered it more important to determine when the animal tissues become entirely Carbadox-free, than to observe the differences among the tissues of the various groups of animals in the time when they were killed.

[2] = tested on: E.coli infections and dysentery; details: pigs; cited from earlier work
[3] = in vivo; cited from earlier work
[4] = administered as a fodder additive; cited from earlier work

Structure (SMILES) | quinoxaline-2-carboxylic acid in muscle, kidney and liver tissues ([1]; Carbadox, no flumecinol, 15th day following termination) | quinoxaline-2-carboxylic acid in the kidney ([1]; control group, 15th day) | presence in muscle tissue ([1]; positive control, 15 days after termination of Carbadox administration) | residual concentration, chop vs. ham ([1]; positive control, muscle tissue) | potency in the treatment and prophylaxis of E.coli infections and dysentery [2] | amount of residue in liver, change from initial ([1]; control group, 1st day) | level of residue in liver ([1]; control group, 15th day) | amount of the Carbadox metabolite residue in the liver vs. muscle ([1]; liver) | elimination rate from the animals [3] | increasing the weight gain of animals [4]
O=C(O)c1cnc2ccccc2n1 [quinoxaline-2-carboxylic acid, Quinoxaline-2-carboxylic acid] | significant amount | detected in the kidney even on the 15th day | present in the muscle tissue even 15 days after the termination of Carbadox administration, in a significant amount | always higher in the chop than in the ham muscle | – | – | – | – | – | –
COC(=O)NN=Cc1c[n+]([O-])c2ccccc2[n+]1[O-] [Carbadox, 3-(2-quinoxalinylmethylene)-carbazic acid methyl ester N,N'-dioxide, reference compound] | – | – | – | – | very potent | further increased on the 1st day | a level identical with the initial concentration in the muscles | one order of magnitude higher than in the muscle tissue | eliminated from the animals at a very low rate | one of the most efficious agents employed for increasing the weight gain of animals
